Among the data in BindingDB's records for doi:10.1016/0896-6273(93)90149-l (The Scripps Research Institute, 1993) are Ki values, retold here.

SMILES strings stand for the structures.

One may read the Ki as a dissociation constant, usually derived from enzyme kinetics or from competition with a known ligand. A low value points to a stronger hold on the target.

The target in experiment [1] is 5-hydroxytryptamine receptor 7 (Rattus norvegicus, UniProt P32305).
Experiment [2] addresses T1, 5-hydroxytryptamine receptor 1A (Rattus norvegicus, UniProt P19327).
T1 sequence (P19327 whole entry): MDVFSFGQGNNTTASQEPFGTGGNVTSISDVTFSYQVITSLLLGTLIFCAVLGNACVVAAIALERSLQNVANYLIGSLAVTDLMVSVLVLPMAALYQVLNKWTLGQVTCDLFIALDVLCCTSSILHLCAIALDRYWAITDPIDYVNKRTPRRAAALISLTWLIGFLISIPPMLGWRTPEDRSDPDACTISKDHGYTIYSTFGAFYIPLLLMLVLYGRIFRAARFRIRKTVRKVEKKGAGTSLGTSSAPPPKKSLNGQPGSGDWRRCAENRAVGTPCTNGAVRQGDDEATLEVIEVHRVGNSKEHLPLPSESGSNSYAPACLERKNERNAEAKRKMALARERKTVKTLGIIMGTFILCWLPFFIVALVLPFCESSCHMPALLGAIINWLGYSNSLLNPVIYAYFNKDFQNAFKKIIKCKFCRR

Chain of 5-hydroxytryptamine receptor 7 (P32305 whole entry): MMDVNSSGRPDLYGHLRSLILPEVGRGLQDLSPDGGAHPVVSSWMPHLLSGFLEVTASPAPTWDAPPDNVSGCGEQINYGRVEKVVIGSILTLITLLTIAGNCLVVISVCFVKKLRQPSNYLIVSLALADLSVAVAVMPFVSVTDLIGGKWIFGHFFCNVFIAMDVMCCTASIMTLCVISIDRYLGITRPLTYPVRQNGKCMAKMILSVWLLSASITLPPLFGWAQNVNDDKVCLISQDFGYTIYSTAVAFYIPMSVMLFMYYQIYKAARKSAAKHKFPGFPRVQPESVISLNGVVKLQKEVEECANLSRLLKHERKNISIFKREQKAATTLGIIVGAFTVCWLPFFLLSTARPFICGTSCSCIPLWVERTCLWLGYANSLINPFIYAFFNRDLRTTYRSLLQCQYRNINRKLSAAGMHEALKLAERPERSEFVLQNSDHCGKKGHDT

Regarding `CCCN(CCC)C1CCc2cccc(O)c2C1` (stereo not given), the inhibition constant Ki in experiment [1] came out at 53 nM. Same read-out and setting: next, `Cc1nc2sccn2c(=O)c1CCN1CCC(=C(c2ccc(F)cc2)c2ccc(F)cc2)CC1`: 33 nM. With `CC[C@@H](CO)NC(=O)[C@@H]1C=C2c3cccc4c3c(cn4C)C[C@H]2N(C)C1`, the Ki in experiment [1] was found to be 17 nM; in experiment [2] it was 545 nM.

As to `NCCc1ccc(O)c(O)c1`, the Ki in experiment [1] and in experiment [2] was 545 nM throughout. In experiment [1], `COc1ccccc1N1CCN(CCCCN2C(=O)c3ccccc3C2=O)CC1` [2-{4-[4-(2-Methoxy-phenyl)-piperazin-1-yl]-butyl}-isoindole-1,3-dione] returned a Ki of 79.1 nM. Turning to `CN1C[C@H](C(=O)N[C@]2(C)O[C@@]3(O)[C@@H]4CCCN4C(=O)[C@H](Cc4ccccc4)N3C2=O)C=C2c3cccc4[nH]cc(c34)C[C@H]21` [12'-hydroxy-2'-methyl-5'alpha-(phenylmethyl)ergotaman-3',6',18-trione], the Ki in experiment [1] came out at 17 nM; in experiment [2], 3 nM. In the case of `O=C1CC2(CCCC2)CC(=O)N1CCCCN1CCN(c2ncccn2)CC1` [BUSPAR], in experiment [1], the Ki worked out at 375 nM. This counts as sub-micromolar. On to `CC(C)NCC(O)COc1cccc2[nH]ccc12` (stereo not given) [LB-46], for which the Ki turned out to be 545 nM in experiment [1] and 31 nM in experiment [2]. Turning to `CN1C[C@@H](NS(=O)(=O)N(C)C)C[C@@H]2c3cccc4c3c(cn4C)C[C@H]21` [MESULERGINE], the inhibition constant Ki in experiment [1] was determined as 9.3 nM; in experiment [2], 545 nM. The corresponding values for `CN1C[C@H](CNC(=O)OCc2ccccc2)C[C@@H]2c3cccc4c3c(cn4C)C[C@H]21` [METERGOLINE] are 16 nM and 273 nM. `CNS(=O)(=O)Cc1ccc2[nH]cc(CCN(C)C)c2c1` [Sumax] showed a Ki in experiment [1] of 545 nM. Same read-out and setting: next, `COc1cc(N)c(Cl)cc1C(=O)NC1CN2CCC1CC2` (stereo not given) [ZACOPRIDE,R]: 545 nM; `NCCc1c[nH]c2ccc(C(N)=O)cc12` [[3H]-5-carboxamidotryptamine]: 0.45 nM.

Compound `CSc1ccc2c(c1)C(N1CCN(C)CC1)Cc1ccccc1S2` (stereo not given) [methanesulfonic acid;1-methyl-4-(3-methylsulfanyl-5,6-dihydrobenzo[b][1]benzothiepin-5-yl)piperazine] had a Ki in experiment [2] of 8.7 nM.
